In patent US20250346606A1, “CAMPTOTHECIN COMPOUND, PREPARATION METHOD THEREFOR, AND APPLICATION THEREOF” (SICHUAN KELUN-BIOTECH BIOPHARMACEUTICAL CO., LTD., priority 2021, published 2025):
Read-outs that look alike come from different tables or passages of the source.

Columns and labels:
NCI-H358 cells = experiment: Inhibitory effect of compounds on NCI-H358 cell proliferation; type: cell-based, Human
Experimental: (1) Cell plating: First, tumor cells NCI-H358 were cultured in corresponding medium, then digested with trypsin, centrifuged, resuspended, and counted, and the cells were adjusted to an appropriate concentration for plating.
(§1) Co-incubation of the compound of the present disclosure and tumor cells: after the cells adhered to the wall, the medium was removed, and the diluted bioactive molecule (the compound of the present disclosure) was added to the wells of the above plate, and incubated for 72 h.
(§2) In vitro cell viability detection: After the incubation, 50 μL of Cell Counting-Lite™ 2.0 reagent (Vazyme/Novazyme) was added to each well, shaken and mixed well in the dark, reacted for 10 minutes, and then the detection was carried out with a microplate reader (manufacturer: BMG, Model: PHERAStar-FS) for reading. The background RLU was obtained by using cell-free medium (with Cell Counting-Lite™), and the vehicle RLU was obtained by using cell-containing medium (with Cell Counting-Lite™). Cell inhibition rate=1−(sample RLU−background RLU)/(solvent RLU−background RLU)×100%. According to the four-parameter model fitting curve, the half maximal inhibitory concentration (IC50) of the compound was calculated, and the detection results were shown in Table 10.

NCI-N87 cells = experiment: Inhibitory effect of compounds on NCI-N87 cell proliferation; type: cell-based, Human
Experimental: (1) Cell plating: First, tumor cells NCI-N87 were cultured in corresponding medium, then digested with trypsin, centrifuged, resuspended, and counted, and the cells were adjusted to an appropriate concentration for plating.
as §1
as §2, with “12.” for “10.”

Jeko-1 cells = experiment: Inhibitory effect of compounds on Jeko-1 cell proliferation; type: cell-based, Human; conditions: read-out: IC50, inhibitory activity on Jeko-1 cell proliferation
Experimental: (1) Cell plating: First, tumor cells Jeko-1 were cultured in corresponding medium, then digested with trypsin, centrifuged, resuspended, and counted, and the cells were adjusted to an appropriate concentration for plating.
as §1
as §2, with “20.” for “10.”

HT29 cells = experiment: Inhibitory effect of compounds on HT29 cell proliferation; type: cell-based, Human; conditions: read-out: IC50, inhibitory activity on HT29 cell proliferation
Experimental: (1) Cell plating: First, tumor cells HT29 were cultured in corresponding medium, then digested with trypsin, centrifuged, resuspended, and counted, and the cells were adjusted to an appropriate concentration for plating.
as §1
as §2, with “2.” for “10.”

HCC1806 cells = experiment: Inhibitory effect of compounds on HCC1806 cell proliferation; type: cell-based, Human
Experimental: (1) Cell plating: First, tumor cells HCC1806 were cultured in corresponding medium, then digested with trypsin, centrifuged, resuspended, and counted, and the cells were adjusted to an appropriate concentration for plating.
as §1
as §2, with “6.” for “10.”

MDA-MB-453 cells = experiment: Inhibitory effect of compounds on MDA-MB-453 cell proliferation; type: cell-based; conditions: MDA-MB-453 human breast cancer cells, 72 h incubation, Cell Counting-Lite 2.0
Experimental: (1) Cell plating: First, tumor cells MDA-MB-453 were cultured in corresponding medium, then digested with trypsin, centrifuged, resuspended, and counted, and the cells were adjusted to an appropriate concentration for plating.
as §1
as §2, with “22.” for “10.”

SKOV-3 cells = experiment: Inhibitory effect of compounds on SKOV-3 cell proliferation; type: cell-based, Human; conditions: Homo sapiens, SK-OV-3, 72 h, read-out: IC50, inhibitory activity on SKOV-3 cell proliferation
Experimental: (1) Cell plating: First, tumor cells SKOV-3 were cultured in corresponding medium, then digested with trypsin, centrifuged, resuspended, and counted, and the cells were adjusted to an appropriate concentration for plating.
as §1
as §2, with “8.” for “10.”

[1] = NCI-H358 human non-small cell lung cancer cells, 72 h incubation, Cell Counting-Lite 2.0, read-out: IC50, inhibitory activity on NCI-H358 cell proliferation
[2] = NCI-N87 human gastric cancer cells, 72 h incubation, Cell Counting-Lite 2.0, read-out: IC50, inhibitory activity on NCI-N87 cell proliferation
[3] = Jeko-1 human mantle cell lymphoma cells, 72 h incubation, Cell Counting-Lite 2.0
[4] = read-out: IC50, inhibitory activity on HCC1806 cell proliferation, HCC1806 human breast squamous carcinoma cells, 72 h incubation, Cell Counting-Lite 2.0
[5] = Homo sapiens, NCI-H358, 72 h, read-out: IC50, inhibitory activity on NCI-H358 cell proliferation, NCI-H358 human non-small cell lung cancer cells, 72 h incubation, Cell Counting-Lite 2.0
[6] = read-out: IC50, inhibitory activity on NCI-N87 cell proliferation, NCI-N87 human gastric cancer cells, 72 h incubation, Cell Counting-Lite 2.0
[7] = Homo sapiens, HCC1806, 72 h, read-out: IC50, inhibitory activity on HCC1806 cell proliferation, HCC1806 human breast squamous carcinoma cells, 72 h incubation, Cell Counting-Lite 2.0
[8] = Homo sapiens, NCI-N87, 72 h, read-out: IC50, inhibitory activity on NCI-N87 cell proliferation, NCI-N87 human gastric cancer cells, 72 h incubation, Cell Counting-Lite 2.0
[9] = HCC1806 human breast squamous carcinoma cells, 72 h incubation, Cell Counting-Lite 2.0, read-out: IC50, inhibitory activity on HCC1806 cell proliferation

With `C=C[C@H](O)C(=O)N[C@H]1CCc2c(C)c(F)cc3nc4c(c1c23)Cn1c-4cc2c(c1=O)COC(=O)[C@]2(O)CC` [Example 2 (1-7-A)] the IC50 (NCI-H358 cells; [1]) was 11.4 nM, the IC50 (NCI-N87 cells; [2]) was 2.7 nM and the IC50 (Jeko-1 cells; [3]) was 0.15 nM.
Work on `CC[C@@]1(O)C(=O)OCc2c1cc1n(c2=O)Cc2c-1nc1cc(F)c(Cl)c3c1c2[C@H](NC(=O)CO)CC3` [Example 9 (3-4-B), N-((1R,9S)-4-Chloro-9-ethyl-5-fluoro-9-hydroxy-10,13-dioxo-2,3,9,10,13,15-hexahydro-1H, 12H-benzo[de]pyrano[3′,4:6,7]indolizino[1,2-b]quinolin-1-yl)-2-hydroxyacetamide] yielded an IC50 (HT29 cells; HT29 human colon cancer cells, 72 h incubation, Cell Counting-Lite 2.0) of 4.98 nM, an IC50 (NCI-N87 cells; [2]) of 6.51 nM and an IC50 (Jeko-1 cells; [3]) of 0.15 nM.
`C=C[C@@H](O)C(=O)N[C@H]1CCc2c(C)c(F)cc3nc4c(c1c23)Cn1c-4cc2c(c1=O)COC(=O)[C@]2(O)CC` [Example 2 (1-7-B)] gave an IC50 (NCI-H358 cells; [1]) of 51.5 nM, an IC50 (NCI-N87 cells; [2]) of 5.48 nM and an IC50 (Jeko-1 cells; [3]) of 0.66 nM.
In the case of `CC[C@@]1(O)C(=O)OCc2c1cc1n(c2=O)Cc2c-1nc1cc(F)c(Cl)c3c1c2C(NC(=O)C(O)C1CC1)CC3` (single isomer, unassigned) [Example 16 (3-12-A)], the IC50 (HCC1806 cells; [4]) is reported as 0.16 nM, the IC50 (NCI-H358 cells; [5]) is reported as 15.4 nM and the IC50 (NCI-N87 cells; [6]) is reported as 0.44 nM. It also gave an IC50 (MDA-MB-453 cells) of 0.47 nM.
With `CC[C@@]1(O)C(=O)OCc2c1cc1n(c2=O)Cc2c-1nc1cc(F)c(Cl)c3c1c2C(NC(=O)C(O)C1CC1)CC3` (single isomer, unassigned) [Example 16 (3-12-D)] the IC50 (HCC1806 cells; [4]) was 1.53 nM, the IC50 (NCI-H358 cells; read-out: IC50, inhibitory activity on NCI-H358 cell proliferation, NCI-H358 human non-small cell lung cancer cells, 72 h incubation, Cell Counting-Lite 2.0) was 20.8 nM and the IC50 (NCI-N87 cells; [6]) was 3.03 nM. For the same compound, the IC50 (MDA-MB-453 cells) was 3.98 nM.
With `CC[C@@]1(O)C(=O)OCc2c1cc1n(c2=O)Cc2c-1nc1cc(F)c(Cl)c3c1c2[C@H](NC[C@H](C)O)CC3` (single isomer, unassigned) [Example 17 (3-7-B)] the IC50 (HCC1806 cells; [7]) was 1.94 nM, the IC50 (NCI-H358 cells; [5]) was 22.2 nM and the IC50 (NCI-N87 cells; [8]) was 4.54 nM. The IC50 (MDA-MB-453 cells; Homo sapiens, MDA-MB-453, 72 h) was 4.87 nM.
In the case of `CC[C@@]1(O)C(=O)OCc2c1cc1n(c2=O)Cc2c-1nc1cc3c(cc1c2CCNC1CC1)OCO3` [Example 21 (4-14), (S)-14-(2-(Cyclopropylamino)ethyl)-7-ethyl-7-hydroxy-7H-[1,3]dioxolano[4,5-g]pyrano[3′,4′:6,7]indolizino[1,2-b]quinolin-8,11 (10H,13H)-dione], the IC50 (HT29 cells; Homo sapiens, HT-29, 72 h) is reported as 0.56 nM, the IC50 (SKOV-3 cells) is reported as 2.16 nM and the IC50 (NCI-H358 cells; [5]) is reported as 12 nM. The IC50 (Jeko-1 cells; Homo sapiens, JeKo-1, 72 h) was 0.34 nM.
Compound `CC[C@@]1(O)C(=O)OCc2c1cc1n(c2=O)Cc2c-1nc1cc(F)c(C)c3c1c2[C@@H](CN)CC3` (single isomer, unassigned) [Example 13 (5-7-A)] has an IC50 (HT29 cells; Homo sapiens, HT-29, 72 h) of 3.13 nM, an IC50 (NCI-N87 cells; [8]) of 6.03 nM and an IC50 (Jeko-1 cells; Homo sapiens, JeKo-1, 72 h) of 0.16 nM.
With `CC[C@@]1(O)C(=O)OCc2c1cc1n(c2=O)Cc2c-1nc1cc(F)c(C3CC3)c3c1c2[C@H](NC(=O)CO)CC3` [Example 19 (5-22-B), N-((1R,9S)-4-cyclopropyl-9-ethyl-5-fluoro-9-hydroxy-10,13-dioxo-1,2,3,9,10,12,13,15-tetrahydrobenzo[de]pyrano[3′,4′:6,7]indolizino[1,2-b]quinolin-1-yl)-2-hydroxyacetamide] the IC50 (HCC1806 cells; [9]) was 3.71 nM, the IC50 (NCI-H358 cells; [1]) was 61.4 nM and the IC50 (NCI-N87 cells; [2]) was 5.51 nM. It also gave an IC50 (MDA-MB-453 cells) of 5.67 nM.
`CC[C@@]1(O)C(=O)OCc2c1cc1n(c2=O)Cc2c-1nc1cc(F)c(C3CC3)c3c1c2[C@@H](NC(=O)CO)CC3` [Example 19 (5-22-A), N-((1S,9S)-4-cyclopropyl-9-ethyl-5-fluoro-9-hydroxy-10,13-dioxo-1,2,3,9,10,12,13,15-tetrahydrobenzo[de]pyrano[3′,4′:6,7]indolizino[1,2-b]quinolin-1-yl)-2-hydroxyacetamide] was tested, and the IC50 (HCC1806 cells; [9]) was 2.57 nM, the IC50 (NCI-H358 cells; [1]) was 29.9 nM and the IC50 (NCI-N87 cells; [2]) was 3.35 nM. For the same compound, the IC50 (MDA-MB-453 cells) was 7.34 nM.
`CC[C@@]1(O)C(=O)OCc2c1cc1n(c2=O)Cc2c-1nc1cc(F)c(Cl)c3c1c2[C@@H](NC[C@@H](C)O)CC3` (single isomer, unassigned) [Example 25 (3-26-A)] showed an IC50 (HCC1806 cells; [7]) of 1.27 nM, an IC50 (NCI-H358 cells; [5]) of 31.6 nM and an IC50 (NCI-N87 cells; [8]) of 1.23 nM. The IC50 (MDA-MB-453 cells; Homo sapiens, MDA-MB-453, 72 h) was 3.95 nM.
